≈ marks a conversion by molar mass, not a printed value.
Assays:
HT29 = assay: three day MTT cytotoxicity assay, HT29; assay type: cell-based, human; details: 72 hours incubation, HT29 colon cells
Experimental: (§1) A number of the anthracene based compounds were tested for cytotoxicity against 12 human tumor cell lines. Briefly, a three day MTT cytotoxicity assay was performed, which is based on the principle of uptake of MTT (3-(4,5-dimethylthiazol-2-yl)-2,5-diphenyl tetrazolium bromide), a tetrazolium salt, by the metabolically active cells where it is metabolized by active mitochondria into a blue colored formazan product that is read spectrophotometrically. MTT was dissolved in phosphate buffered saline with a pH of 7.4 to obtain an MTT concentration of 5 mg/ml; the resulting mixture was filtered through a 0.22 micron filter to sterilize and remove a small amount of insoluble residue. For each type of tumor cell, 10,000 to 15,000 cells were seeded in a 96-well culture plate and incubated with the individual anthracene based compounds in a CO2 incubator for a total of 72 hours. Control cells not treated with the anthracene based compounds were similarly incubated. The assay was terminated by adding 100 ug (20 ul) of MTT to each well, then incubating for additional one hour, and finally adding 50 ul of 10% SDS-0.01N HCl to each well to lyse the cells and dissolve formazan. After incubating for one hour, the plate was read spectrophotometrically at 540 nm and the percentage of cytotoxicity calculated using the following formula:
(§2) Cytotoxicity percentage=100×[1−(X/R1)],
(§3) where X=(absorbance of treated sample at 540 nm)−(absorbance of blank at 540 nm)
(§4) R1=absorbance of control sample at 540 nm.
(§5) The IC50 Values of the cytotoxicity defined as the concentration at which 50% of the cells are killed in vitro was calculated for each cell line treated with each of the anthracene based compounds.

KB = assay: three day MTT cytotoxicity assay, KB; assay type: cell-based, human; details: 72 hours incubation, KB oral cells
Experimental: as §1, §2, §3, §4, §5

Hep2 = assay: three day MTT cytotoxicity assay, Hep2; assay type: cell-based, human; details: 72 hours incubation, Hep2 larynx cells
Experimental: as §1, §2, §3, §4, §5

L132 = assay: three day MTT cytotoxicity assay, L132; assay type: cell-based, human; details: 72 hours incubation, L132 lung cells
Experimental: as §1, §2, §3, §4, §5

ECV304 = assay: three day MTT cytotoxicity assay, ECV304; assay type: cell-based, human; details: 72 hours incubation, ECV304 endothelial cells
Experimental: as §1, §2, §3, §4, §5

MCF7 = assay: three day MTT cytotoxicity assay, MCF7; assay type: cell-based, human; details: 72 hours incubation, MCF7 breast cells
Experimental: as §1, §2, §3, §4, §5

U87MG = assay: three day MTT cytotoxicity assay, U87MG; assay type: cell-based, human; details: 72 hours incubation, U87MG glioblastoma cells
Experimental: as §1, §2, §3, §4, §5

MiaPaca2 = assay: three day MTT cytotoxicity assay, MiaPaca2; assay type: cell-based, human; details: 72 hours incubation, MiaPaca2 pancreatic cells
Experimental: as §1, §2, §3, §4, §5

DU145 = assay: three day MTT cytotoxicity assay, DU145; assay type: cell-based, human; details: 72 hours incubation, DU145 prostate cells
Experimental: as §1, §2, §3, §4, §5

PTC = assay: three day MTT cytotoxicity assay, PTC; assay type: cell-based, human; details: 72 hours incubation, PTC colon cells
Experimental: as §1, §2, §3, §4, §5

MOLT4 = assay: three day MTT cytotoxicity assay, MOLT4; assay type: cell-based, human; details: 72 hours incubation, MOLT4 leukemia cells
Experimental: as §1, §2, §3, §4, §5

PA1 = assay: three day MTT cytotoxicity assay, PA1; assay type: cell-based, human; details: 72 hours incubation, PA1 ovarian cells
Experimental: as §1, §2, §3, §4, §5

Row | SMILES | ED50 HT29 Colon (HT29) [µg/mL] | ED50 KB Oral (KB) [µg/mL] | ED50 Hep2 Larynx (Hep2) [µg/mL] | ED50 L132 Lung (L132) [µg/mL] | ED50 ECV304 Endothelial (ECV304) [µg/mL] | ED50 MCF7 Breast (MCF7) [µg/mL] | ED50 U87MG Glioblastoma (U87MG) [µg/mL] | ED50 MiaPaca2 Pancreatic (MiaPaca2) [µg/mL] | ED50 DU145 Prostate (DU145) [µg/mL] | ED50 PTC Colon (PTC) [µg/mL] | ED50 MOLT4 Leukemia (MOLT4) [µg/mL] | ED50 PA1 Ovarian (PA1) [µg/mL] | melting point [°C]
1 | CC1=CCC2C(CC3=C(C(=O)C=CC3=O)C2(C)C)C1OC(=O)C1OC(C)(C)N(C(=O)OC(C)(C)C)C1c1ccccc1 (stereo not shown) [Compound 25, 2,2-Dimethyl-4-phenyl-oxazolidine-3,5-dicarboxylic acid 3-tert-butyl ester 5-(2,10,10-trimethyl-5,8-dioxo-1,4,4a,5,8,9,9a,10-octahydro-anthracen-1-yl) ester] | 35 (≈ 60.8 µM) | 35 (≈ 60.8 µM) | 11 (≈ 19.1 µM) | 4 (≈ 6.95 µM) | 5 (≈ 8.69 µM) | 16 (≈ 27.8 µM) | 24 (≈ 41.7 µM) | 35 (≈ 60.8 µM) | 32 (≈ 55.6 µM) | 8 (≈ 13.9 µM) | <1 | 8 (≈ 13.9 µM) | 
2 | CC1=CCC2C(CC3=C(C(=O)C=CC3=O)C2(C)C)C1OC(=O)C(O)C(N)c1ccccc1 (stereo not shown) [Compound 26, 3-Amino-2-hydroxy-3-phenyl-propionic acid 2,10,10-trimethyl-5,8-dioxo-1,4,4a,5,8,9,9a,10-octahydro-anthracen-1-yl ester] | 6.5 (≈ 14.9 µM) | 31 (≈ 71.2 µM) | 20 (≈ 45.9 µM) | 10 (≈ 23 µM) | 29 (≈ 66.6 µM) | 32 (≈ 73.5 µM) | 24 (≈ 55.1 µM) | 35 (≈ 80.4 µM) | 26 (≈ 59.7 µM) | 5.0 (≈ 11.5 µM) | 5.0 (≈ 11.5 µM) | 19 (≈ 43.6 µM) | 
3 | CC1=CCC2C(C)(C)C3=C(CC2(C)C1OC(=O)C1OC(C)(C)N(C(=O)OC(C)(C)C)C1c1ccccc1)C(=O)C=CC3=O (stereo not shown) [Compound 23, 2,2-Dimethyl-4-phenyl-oxazolidine-3,5-dicarboxylic acid 3-tert-butyl ester 5-(2,9a,10,10-tetramethyl-5,8-dioxo-1,4,4a,5,8,9,9a,10-octahydro-anthracen-1-yl) ester] |  |  |  |  |  |  |  |  |  |  |  |  | 90 to 92
4 | COc1ccc(OC)c2c1Cc1c(ccc(C)c1OC(=O)[C@H](O)[C@@H](N)c1ccccc1)C2(C)C [Compound 29, 3-Amino-2-hydroxy-3-phenyl-propionic acid 5,8-dimethoxy-2,10,10,-trimethyl-9,10-dihydro-anthracen-1-yl ester] | 6.5 (≈ 14.1 µM) | 30 (≈ 65 µM) | 5.0 (≈ 10.8 µM) | 5.0 (≈ 10.8 µM) | 9.0 (≈ 19.5 µM) | 29 (≈ 62.8 µM) | 8.0 (≈ 17.3 µM) | 35 (≈ 75.8 µM) | 34 (≈ 73.7 µM) | 5.0 (≈ 10.8 µM) | 5.0 (≈ 10.8 µM) | 5.0 (≈ 10.8 µM) | 
5 | CC1=CCC2C(C)(C)C3=C(CC2(C)C1=O)C(=O)C=CC3=O (stereo not shown) [Compound 19, 6,9,9,10a-Tetramethyl-8a,9,10,10a-tetrahydro-8H-anthracene-1,4,5-trione] | 33 (≈ 116 µM) | 62 (≈ 218 µM) | 26 (≈ 91.4 µM) | 6 (≈ 21.1 µM) | 6 (≈ 21.1 µM) | 18 (≈ 63.3 µM) | 16 (≈ 56.3 µM) | 80 (≈ 281 µM) | 15 (≈ 52.8 µM) | 40 (≈ 141 µM) | 4 (≈ 14.1 µM) | 15 (≈ 52.8 µM) | 
6 | CC1=CCC2C(C)(C)C3=C(CC2(C)C1OC(=O)C(O)C(N)c1ccccc1)C(=O)C=CC3=O (stereo not shown) [Compound 24, 3-Amino-2-hydroxy-3-phenyl-propionic acid 2,9a,10,10-tetramethyl-5,8-dioxo-1,4,4a,5,8,9,9a,10-octahydro-anthracen-1-yl ester] | 6 (≈ 13.3 µM) | 6.6 (≈ 14.7 µM) | 14 (≈ 31.1 µM) | >100 | 3 (≈ 6.67 µM) | >100 | 5 (≈ 11.1 µM) | >100 | 5 (≈ 11.1 µM) |  | 7 (≈ 15.6 µM) | 8 (≈ 17.8 µM) | 
7 | COc1ccc(OC)c2c1C[C@]1(C)C(OC(=O)[C@H](O)[C@@H](N)c3ccccc3)C(C)=CC[C@H]1C2(C)C (stereo partly shown) [Compound 11, 3-Amino-2-hydroxy-3-phenyl-propionic acid 5,8-dimethoxy-2,9a,10,10-tetramethyl-1,4,4a,9,9a,10-hexahydro-anthrcen-1-yl ester] | 27 (≈ 56.3 µM) | 18 (≈ 37.5 µM) | 16 (≈ 33.4 µM) | 21 (≈ 43.8 µM) | 2 (≈ 4.17 µM) | 8 (≈ 16.7 µM) | 10 (≈ 20.8 µM) | 7 (≈ 14.6 µM) | 10 (≈ 20.8 µM) |  | <1 | 4 (≈ 8.34 µM) | 
8 | CC1=CCC2C(CC3=C(C(=O)C=CC3=O)C2(C)C)C1=O (stereo not shown) [Compound 20, 6,9,9-Trimethyl-8a,9, 10,10a-tetrahydro-8H-anthracene-1,4,5-trione] |  |  |  |  |  |  |  |  |  |  |  |  | 125 to 140
9 | COc1ccc(OC)c2c1CC1C(OC(=O)C(O)C(N)c3ccccc3)C(C)=CCC1C2(C)C (stereo not shown) [Compound 7, 3-Amino-2-hydroxy-3-phenyl-propionic acid 5,8-dimethoxy-2,10,10-trimethyl-1,4,4a,9,9a,10-hexahydro-anthracen-1-yl ester] | 8.0 (≈ 17.2 µM) | 29 (≈ 62.3 µM) | 5.0 (≈ 10.7 µM) | 24 (≈ 51.5 µM) | 6.0 (≈ 12.9 µM) | 35 (≈ 75.2 µM) | 24 (≈ 51.5 µM) | 35 (≈ 75.2 µM) | 33 (≈ 70.9 µM) | 5.0 (≈ 10.7 µM) | 5.0 (≈ 10.7 µM) | 5.0 (≈ 10.7 µM) | 
10 | CC1=CCC2C(C)(C)C3=C(CC2(C)C1OC(=O)c1cc(Cl)nc(Cl)n1)C(=O)C=CC3=O (stereo not shown) [Compound 27, 2,6-Dichloro-pyrimidine-4-carboxylicacid-2,9a,10,10-tetramethyl-5,8-dioxo-1,4,4a,5,8,9,9a,10-octahydro-anthracen-1-yl ester] |  |  |  |  |  |  |  |  |  |  |  |  | 137 to 140
